Data: PMC12383012 (Antioxidants, 2025)
Entries after “also recorded” stand apart in the source; their conditions may differ.

Experiments:
[1] = Free-radical-scavenging assay (DPPH method); conditions: for % AA (radical-scavenging activity): compound concentration 100 μM; for EC50: read-out: AA EC50
Experimental: The percentage of radical-scavenging activity (%AA, antioxidant capacity) of the RIV hybrids was first determined by the 2,2-diphenyl-1-picrylhydrazyl (DPPH) method using a compound concentration of 100 μM. […] Each calibration point was kept 30 min in darkness, and afterwards, the absorbance was measured at 517 nm. The corresponding antioxidant activity (%AA) was calculated using the equation %AA=ADPPH−Aligand/ADPPH×100. From the plot of %AA versus ligand concentration, EC50 was determined. Three independent experiments were performed, and a statistical analysis was conducted by a one-way analysis of variance (ANOVA) with the significance threshold set at p < 0.05.
The RIV hybrids were screened for their radical-scavenging activity by using the DPPH method. These assays were conducted in two stages: first, preliminary analyses were performed for all the compounds to evaluate the percentage of radical-scavenging activity by using a compound concentration of 100 μM. Afterwards, the compounds showing more than 50% antioxidant activity (AA), under those conditions, were further assessed to evaluate the respective EC50 values.

Aβ1–42 = target: T1, Aβ1–42 (Homo sapiens, UniProt P05067); experiment: Inhibition of Aβ1–42 self-aggregation (ThT fluorescence); assay type: biochemical; conditions: read-out: % Aβ42 Self-Agg Inhib; for inhibition at 20 µM: 24 h
T1 construct: the Aβ1–42 peptide (Shanghai Royobiotech Co., Ltd., Shanghai, China); purchased Shanghai Royobiotech Co., Ltd
Experimental: Firstly, the Aβ1–42 peptide (Shanghai Royobiotech Co., Ltd., Shanghai, China) was treated with 1,1,1,3,3,3-hexafluoropropan-2-ol (HFIP) and then dissolved in a CH3CN/Na2CO3 (300 μM)/NaOH (250 μM) (48.3:48.3:4.3, v/v/v) mixture in order to obtain a stable stock solution (500 μM).
Solutions of 1 mg of the assayed compounds in 2 mL of 1:1 (v/v) DMSO/MeOH (0.5 mg/mL) medium were prepared and then properly diluted with phosphate buffer (0.215 M, pH 8.0) to obtain a 120 μM final concentration. The Aβ1–42 self-aggregation inhibition assays were made based on a reported method, involving the fluorescence emission of thioflavin T (ThT). So, Aβ1–42 (40 μM) was incubated at 37 °C for 24 h in phosphate buffer and in the presence or absence of each ligand (40 μM for all compounds but 4AY4 and 4CY1, for which 20 μM was used). Then, […] 5 μM ThT in 50 mM glycine-NaOH (pH 8.5) buffer were added to each sample before transferring the samples to a 96-well microplate. Blank samples were also prepared without Aβ1–42. The ThT fluorescence was measured (446 and 485 nm excitation and emission wavelengths, respectively), and the percent of self-aggregation inhibition was determined by the equation:I% = 100 − (IFi/IF0 × 100) where IFi and IF0 are the fluorescence intensities, in the presence and the absence of the assayed compound, subtracted from the fluorescence intensities due to the respective blanks. The calculated values were obtained as the mean ± SEM of four different experiments conducted in duplicate. Statistical analysis was performed by a one-way analysis of variance (ANOVA) with a significance threshold set at p < 0.05.

[2] = test system: SH-SY5Y human neuroblastoma cell line; experiment: Cell viability dose-response screening (MTT); assay type: cell-based; conditions: 24 h
Experimental: (§1) Cell viability was assessed using the colorimetric MTT (3-(4,5-dimethylthiazol-2-yl)-2,5-diphenyltetrazolium bromide) assay, as previously described.
(§2) The compounds’ solutions (4AY1-6, 4BY1-3, and 4CY1) were prepared in DMSO to create stock solutions at a concentration of 25 mM, which were then stored at −20 °C. A concentration range from 0.5 µM to 20 µM was screened to identify the highest non-toxic dose. The SH-SY5Y human neuroblastoma cell line (ATCC-CRL-2266) was grown in Dulbecco’s modified Eagle’s medium (DMEM) (Thermo Fisher Scientific-Gibco, Waltham, MA, USA) supplemented with 10% heat-inactivated fetal calf serum, 50 U/mL penicillin, and 50 µg/mL streptomycin at 37 °C in a 5% CO2 atmosphere. The cells were seeded at a density of 0.1 × 10^6 cells/mL (when 48-well plates were used) or 0.15 × 10^6 cells/mL (when 24-well plates were used) one day before the experiment commenced. Following the seeding, the cells were treated with the selected concentrations of compounds for 24 h. After treatment, the cells were washed with PBS and incubated with 150 µL (in 48-well plates) or 200 µL (in 24-well plates) of MTT (0.5 mg/mL) for 2 h at 37 °C with 5% CO2. During this incubation, cellular dehydrogenases converted MTT into formazan crystals, which were subsequently dissolved in 150 µL (in 48-well plates) or 200 µL (in 24-well plates) of 0.04 M HCl/isopropanol, and the absorbance was measured at 570 nm.

[3] = target: T2, equine butyrylcholinesterase (eqBChE) (Equus caballus, UniProt P81908); experiment: Butyrylcholinesterase inhibition (adapted Ellman's method); assay type: biochemical; conditions: for IC50: eqBChE, read-out: BChE Inhib IC50; for SI (selectivity index): SI = IC50 (AChE)/IC50 (BChE)
T2 construct: purchased
Experimental: (§3) The enzyme inhibition of electric eel acetylcholinesterase (eeAChE) and equine butyrylcholinesterase (eqBChE) was performed according to an adaptation of Elmman’s method. Stock solutions of 1 mg of each compound in 1 mL MeOH were prepared, and adequate dilutions were further made for each ligand. A control measurement (5 replicates without a ligand) and a calibration curve of 5 points with 3 replicates per point were conducted. Each solution included fixed volumes of 4-(2-hydroxyethyl)-1-piperazine-ethanesulfonic acid (HEPES) and cholinesterase (eeAChE or eqBChE), with different volumes of ligand solution. A blank solution containing HEPES and MeOH was also prepared at the same time. After 15 min of reaction, […] (AChI) or butyrylcholine iodide (BChI) and 5,5’-dithiobis-(2-nitrobenzoic acid) (DTNB) were added to both solutions contained in spectrophotometer cuvettes, and the absorbance at 405 nm was recorded for 5 min (time interval = 1 s, slid width = 1 nm). The slope for each calibration point (absorbance versus reaction time) was determined, and the percent inhibition was calculated by using the equation: %Inhibition=100−(vi/v0×100). where vi is the reaction rate (slope) for each point of the calibration with the ligand, and v0 is the initial reaction rate (slope) for the control point (without ligand). Finally, the five-point linear regression (10–50 µL of ligand solution) corresponding to the percentage of enzyme inhibition vs. the compound concentration allowed for the determination of the half maximal inhibitory concentration (IC50, µM) (compound concentration for which enzyme activity is reduced to half). Experiments were performed twice for each ligand. Statistical analysis was performed by a one-way analysis of variance (ANOVA) with a significance threshold set at p < 0.05.

[4] = target: T3, electric eel acetylcholinesterase (eeAChE) (Electrophorus electricus, UniProt O42275); experiment: Acetylcholinesterase inhibition (adapted Ellman's method); assay type: biochemical; conditions: read-out: AChE Inhib IC50
T3 construct: purchased
Experimental: as §3

[5] = test system: SH-SY5Y human neuroblastoma cell line; experiment: Protection against iron/ascorbate-induced toxicity (MTT); assay type: cell-based; conditions: 1 h pre-treatment at highest nontoxic concentration, then 24 h with Fe/Asc
Experimental: as §1, §2
To evaluate the compounds’ protective effects against toxicity induced by Aβ1–42 or iron/ascorbate, the cells were pre-treated with each compound for one hour before adding Aβ1–42 or iron/ascorbate, followed by an additional 24-h incubation. Aβ1–42 (Bachem, Torrance, CA, USA) was prepared in sterile water to create a 443 µM stock solution and was added to the cells at a final concentration of 1 µM. Ferrous sulfate and L-ascorbic acid (Sigma Chemical Co., St. Louis, MO, USA) were introduced into the medium at final concentrations of 5 mM and 2.5 mM, respectively. […]

[6] = dose given for the Aβ1–42 experiments
[7] = dose given for the iron/ascorbate experiments

T1 sequence (P05067 672-713): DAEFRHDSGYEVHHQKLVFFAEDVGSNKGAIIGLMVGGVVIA
T3 sequence (O42275 24-633): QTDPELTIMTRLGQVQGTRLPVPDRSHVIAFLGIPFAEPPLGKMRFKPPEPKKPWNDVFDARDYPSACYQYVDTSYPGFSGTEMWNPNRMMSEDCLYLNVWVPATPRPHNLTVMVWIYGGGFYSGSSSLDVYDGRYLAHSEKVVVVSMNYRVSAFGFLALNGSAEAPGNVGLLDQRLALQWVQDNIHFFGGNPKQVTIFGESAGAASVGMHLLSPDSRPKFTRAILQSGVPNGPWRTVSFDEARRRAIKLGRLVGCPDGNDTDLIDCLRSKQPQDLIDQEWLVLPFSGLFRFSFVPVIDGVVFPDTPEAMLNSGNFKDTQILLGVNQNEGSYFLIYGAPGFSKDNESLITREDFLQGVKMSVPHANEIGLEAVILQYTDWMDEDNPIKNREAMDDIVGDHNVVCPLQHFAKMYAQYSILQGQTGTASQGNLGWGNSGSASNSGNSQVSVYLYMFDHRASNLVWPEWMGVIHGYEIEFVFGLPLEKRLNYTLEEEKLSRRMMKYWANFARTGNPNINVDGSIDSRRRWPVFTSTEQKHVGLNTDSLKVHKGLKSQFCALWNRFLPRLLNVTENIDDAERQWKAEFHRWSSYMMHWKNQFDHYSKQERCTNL
T2 sequence (P81908 whole entry): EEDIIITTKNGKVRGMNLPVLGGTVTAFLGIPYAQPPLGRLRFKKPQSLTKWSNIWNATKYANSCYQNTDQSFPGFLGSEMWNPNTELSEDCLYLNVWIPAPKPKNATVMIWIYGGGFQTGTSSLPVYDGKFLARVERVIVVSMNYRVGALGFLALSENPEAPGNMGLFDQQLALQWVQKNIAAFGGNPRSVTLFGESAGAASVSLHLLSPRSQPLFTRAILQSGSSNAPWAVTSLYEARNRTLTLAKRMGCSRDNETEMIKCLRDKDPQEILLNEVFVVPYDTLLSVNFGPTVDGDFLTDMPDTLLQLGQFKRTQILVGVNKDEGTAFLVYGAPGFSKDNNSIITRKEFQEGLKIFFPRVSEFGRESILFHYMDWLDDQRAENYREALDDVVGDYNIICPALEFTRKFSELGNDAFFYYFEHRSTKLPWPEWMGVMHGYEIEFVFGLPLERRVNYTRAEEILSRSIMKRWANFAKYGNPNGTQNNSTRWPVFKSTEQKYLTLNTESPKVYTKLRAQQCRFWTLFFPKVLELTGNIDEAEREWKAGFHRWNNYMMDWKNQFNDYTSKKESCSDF

| Compound | % AA (radical-scavenging activity) [1] [%] | inhibition at 40 µM (Aβ1–42) [%] | highest nontoxic concentration [2] [µM] | IC50 [3] [µM] | IC50 [4] [µM] | EC50 [1] [µM] | highest nontoxic concentration [2, 6] [µM] | highest nontoxic concentration [2, 7] [µM] | SI (selectivity index) [3] | rescue of cell viability after iron/ascorbate treatment [5] | inhibition at 20 µM (Aβ1–42) [%] |
| --- | --- | --- | --- | --- | --- | --- | --- | --- | --- | --- | --- |
| CCN(C)C(=O)Oc1cccc(NC(=O)c2cc(OC)c(O)c(OC)c2)c1 [4AY1, 3-(4-Hydroxy-3,5-dimethoxybenzamido)phenyl ethyl(methyl)carbamate] | <50 | 20 ± 2 | 10 | 31 ± 2 | > 200 | – | – | – | – | – | – |
| CCN(C)C(=O)Oc1cccc(NC(=O)C2(C)CCc3c(C)c(O)c(C)c(C)c3O2)c1 (stereo not drawn) [4AY2, 3-(6-Hydroxy-2,5,7,8-tetramethylchromane-2-carboxamido)phenyl ethyl(methyl)carbamate] | 95 ± 3 | 45 ± 4 | – | 36 ± 3 | 69 ± 7 | 18.1 ± 0.4 | 1 | 2.5 | 1.9 | capable of rescuing the cell viability; also recorded: significantly improved cell viability | – |
| CCN(C)C(=O)Oc1cccc(NC(=O)/C=C/c2ccc3c(c2)OCO3)c1 [4AY3, (E)-3-(3-(Benzo[d][1,3]dioxol-5-yl)acrylamido)phenyl ethyl(methyl)carbamate] | <50 | 45 ± 4 | 5 | 3.1 ± 0.4 | 50.5 ± 0.1 | – | – | – | 16.3 | – | – |
| CCN(C)C(=O)Oc1cccc(NC(=O)/C=C/C=C/c2ccc3c(c2)OCO3)c1 [4AY4, 3-((2E,4E)-5-(Benzo[d][1,3]dioxol-5-yl)penta-2,4-dienamido)phenyl ethyl(methyl)carbamate] | <50 | – | – | 15.2 ± 0.4 | 14.51 ± 0.04 | – | 1 | 2.5 | 0.9 | capable of rescuing the cell viability; also recorded: significantly improved cell viability | 23 ± 3 |
| CCN(C)C(=O)Oc1cccc(NC(=O)/C=C/c2ccc(O)c(O)c2)c1 [4AY5, (E)-3-(3-(3,4-Dihydroxyphenyl)acrylamido)phenyl ethyl(methyl)carbamate] | 96 ± 2 | 82 ± 5 | 0.5 | 7.2 ± 0.3 | 110 ± 5 | 15.7 ± 0.4 | – | – | 15.3 | – | – |
| CCN(C)C(=O)Oc1cccc(NC(=O)/C=C/C=C/c2ccc(O)c(O)c2)c1 [4AY6, 3-((2E,4E)-5-(3,4-Dihydroxyphenyl)penta-2,4-dienamido)phenyl ethyl(methyl)carbamate] | 93.1 ± 0.8 | 75 ± 7 | 1 | 5.7 ± 0.6 | 5 ± 1 | 28 ± 0.4 | – | – | 0.9 | – | – |
| CCN(C)C(=O)Oc1cccc(CNC(=O)c2cc(OC)c(O)c(OC)c2)c1 [4BY1, 3-((4-Hydroxy-3,5-dimethoxybenzamido)methyl)phenyl ethyl(methyl)carbamate] | <50 | 58 ± 6 | 15 | 75 ± 0.6 | > 200 | – | – | – | – | – | – |
| CCN(C)C(=O)Oc1cccc(CNC(=O)/C=C/c2ccc3c(c2)OCO3)c1 [4BY3, (E)-3-((3-(Benzo[d][1,3]dioxol-5-yl)acrylamido)methyl)phenyl ethyl(methyl)carbamate] | <50 | 29 ± 3 | 1 | 0.9 ± 0.2 | 91 ± 6 | – | – | – | 101 | – | – |
| COc1cc(C(=O)Nc2cccc(OC(=O)N(C)C)c2)cc(OC)c1O [4CY1, 3-(4-Hydroxy-3,5-dimethoxybenzamido)phenyl dimethylcarbamate] | <50 | – | 5 | 68 ± 7 | > 200 | – | – | – | – | – | 31 ± 3 |
| COc1cc(/C=C/C(=O)CC(=O)/C=C/c2ccc(O)c(OC)c2)ccc1O [Curcumin, reference compound] | – | 77 ± 1 | – | – | – | – | – | – | – | – | – |
| Cc1c(C)c2c(c(C)c1O)CCC(C)(C(=O)O)O2 (stereo not drawn) [Trolox, 6-hydroxy-2,5,7,8-tetramethylchromane-2-carboxylic acid, reference compound] | – | – | – | – | – | 13.8 ± 0.2 | – | – | – | – | – |
